The text below walks through data of ChEMBL document CHEMBL5465560, “Selectivity Literature for EUbOPEN Chemogenomic Library” (2024).

Assay [1] has as its target T1, Mitogen-activated protein kinase kinase kinase kinase 2 (Homo sapiens) (UniProt Q12851).
T1 sequence (whole entry): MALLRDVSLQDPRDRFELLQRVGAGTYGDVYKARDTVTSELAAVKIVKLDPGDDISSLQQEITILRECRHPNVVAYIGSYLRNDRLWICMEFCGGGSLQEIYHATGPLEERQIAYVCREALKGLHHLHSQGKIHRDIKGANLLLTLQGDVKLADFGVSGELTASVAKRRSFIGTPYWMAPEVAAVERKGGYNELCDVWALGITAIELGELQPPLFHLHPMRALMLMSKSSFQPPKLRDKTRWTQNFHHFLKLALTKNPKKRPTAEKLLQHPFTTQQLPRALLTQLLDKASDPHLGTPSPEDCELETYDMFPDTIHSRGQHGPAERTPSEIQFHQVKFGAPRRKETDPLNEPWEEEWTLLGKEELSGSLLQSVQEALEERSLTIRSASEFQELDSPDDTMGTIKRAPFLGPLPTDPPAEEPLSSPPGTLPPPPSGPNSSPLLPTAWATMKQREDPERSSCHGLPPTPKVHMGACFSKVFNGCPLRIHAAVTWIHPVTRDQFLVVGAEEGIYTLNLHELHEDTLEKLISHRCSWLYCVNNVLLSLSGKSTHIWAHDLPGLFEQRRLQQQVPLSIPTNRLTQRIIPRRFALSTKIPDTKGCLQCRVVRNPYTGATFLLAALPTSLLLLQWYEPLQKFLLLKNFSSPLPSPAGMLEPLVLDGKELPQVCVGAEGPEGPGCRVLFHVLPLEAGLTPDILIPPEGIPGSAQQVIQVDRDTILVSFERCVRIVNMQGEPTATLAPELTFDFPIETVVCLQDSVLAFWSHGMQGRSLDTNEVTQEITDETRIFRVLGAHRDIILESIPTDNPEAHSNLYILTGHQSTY
The assay can be described thus: Selectivity interaction (Kinase panel (Z-LYTE Assay)) EUB0001632a MAP4K2. The conditions noted are these: at 10 µM.

In assay [2] the target is T2, Dual specificity tyrosine-phosphorylation-regulated kinase 2 (Homo sapiens) (UniProt Q92630).
T2 sequence (whole entry): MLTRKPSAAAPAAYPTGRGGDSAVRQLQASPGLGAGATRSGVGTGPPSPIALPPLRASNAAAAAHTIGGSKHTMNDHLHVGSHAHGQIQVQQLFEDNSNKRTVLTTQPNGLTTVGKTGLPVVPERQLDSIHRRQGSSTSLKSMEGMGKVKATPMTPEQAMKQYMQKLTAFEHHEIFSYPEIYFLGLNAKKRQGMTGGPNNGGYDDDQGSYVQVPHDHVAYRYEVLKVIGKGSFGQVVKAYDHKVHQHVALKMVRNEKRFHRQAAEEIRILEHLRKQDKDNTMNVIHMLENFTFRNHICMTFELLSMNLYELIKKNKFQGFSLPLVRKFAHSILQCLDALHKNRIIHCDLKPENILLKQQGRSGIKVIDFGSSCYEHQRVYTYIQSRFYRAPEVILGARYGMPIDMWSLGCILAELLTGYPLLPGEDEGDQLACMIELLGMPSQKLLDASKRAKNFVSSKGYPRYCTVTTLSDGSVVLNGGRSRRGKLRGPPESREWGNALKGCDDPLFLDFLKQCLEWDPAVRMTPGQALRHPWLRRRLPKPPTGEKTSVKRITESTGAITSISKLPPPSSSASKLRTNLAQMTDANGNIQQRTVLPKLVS
The assay can be described thus: Selectivity interaction (Ambit KINOMEscan and KiNATiv profiling in Jurkat cells) EUB0000090b DYRK2. Type of assay: cell-based. The conditions noted are these: at 1 µM.

Assay [3] has as its target Sodium-dependent dopamine transporter (Homo sapiens, UniProt Q01959). Kind of assay: Selectivity interaction (Panel of non-epigenetic targets (kinases, GPCRs, ion channels, and transporters, Eurofins) ) EUB0000271b SLC6A3. Conditions: at 1 µM.
For assay [4], the target named is Mitogen-activated protein kinase 3 (Homo sapiens, UniProt P27361). Kind of assay: Selectivity interaction (KinomeScan (DiscoverX)) EUB0000655a MAPK3. Conditions: at 10 µM.
Assay [5] has as its target T3, Serine/threonine-protein kinase Sgk2 (Homo sapiens) (UniProt Q9HBY8).
T3 sequence (whole entry): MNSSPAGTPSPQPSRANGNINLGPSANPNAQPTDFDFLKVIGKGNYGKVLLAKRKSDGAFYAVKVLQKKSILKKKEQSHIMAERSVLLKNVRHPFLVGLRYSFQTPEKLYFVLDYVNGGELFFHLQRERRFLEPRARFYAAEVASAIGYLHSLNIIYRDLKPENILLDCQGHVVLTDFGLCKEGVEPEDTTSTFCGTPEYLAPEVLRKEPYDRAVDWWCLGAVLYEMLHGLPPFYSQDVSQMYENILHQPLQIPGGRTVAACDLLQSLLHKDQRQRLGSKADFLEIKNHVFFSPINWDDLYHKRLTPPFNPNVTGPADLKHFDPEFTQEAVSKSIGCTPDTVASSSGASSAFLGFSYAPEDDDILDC
The assay can be described thus: Selectivity interaction (KinomeScan (DiscoverX)) EUB0001079a SGK2. The conditions noted are these: at 1 µM.

Assay [6] deals with Interleukin-1 receptor-associated kinase 1 (Homo sapiens) (UniProt P51617). The assay can be described thus: Selectivity interaction (Kinase panel (Invitrogen)) EUB0000639a IRAK1. Conditions: at 200 nM.
The target of assay [7] is Tyrosine-protein kinase JAK1 (Homo sapiens, UniProt P23458). Kind of assay: Selectivity interaction (ActivX KiNativ screen (kinase selectivity in THP-1 cell lysates)) EUB0000639a JAK1. Type of assay: subcellular. Conditions: lysate, at 1 µM.
The subject of assay [8] is Tyrosine-protein kinase ABL1 (Homo sapiens), P00519 [H396P]. The conditions noted are these: at 10 µM.
Assay [9] addresses cAMP-dependent protein kinase catalytic subunit beta (Homo sapiens) (UniProt P22694). The assay can be described thus: Selectivity interaction (KinomeScan (DiscoverX)) EUB0000695a PRKACB. Conditions: at 100 nM.
Assay [10] deals with Ribosomal protein S6 kinase beta-1 (Homo sapiens, UniProt P23443). Kind of assay: Selectivity interaction (Upstate Kinase Profiler service (Millipore)) EUB0000056c RPS6KB1. Conditions: at 1 µM.
For assay [11], the target named is T4, Membrane-associated tyrosine- and threonine-specific cdc2-inhibitory kinase (Homo sapiens) (UniProt Q99640).
T4 sequence (whole entry): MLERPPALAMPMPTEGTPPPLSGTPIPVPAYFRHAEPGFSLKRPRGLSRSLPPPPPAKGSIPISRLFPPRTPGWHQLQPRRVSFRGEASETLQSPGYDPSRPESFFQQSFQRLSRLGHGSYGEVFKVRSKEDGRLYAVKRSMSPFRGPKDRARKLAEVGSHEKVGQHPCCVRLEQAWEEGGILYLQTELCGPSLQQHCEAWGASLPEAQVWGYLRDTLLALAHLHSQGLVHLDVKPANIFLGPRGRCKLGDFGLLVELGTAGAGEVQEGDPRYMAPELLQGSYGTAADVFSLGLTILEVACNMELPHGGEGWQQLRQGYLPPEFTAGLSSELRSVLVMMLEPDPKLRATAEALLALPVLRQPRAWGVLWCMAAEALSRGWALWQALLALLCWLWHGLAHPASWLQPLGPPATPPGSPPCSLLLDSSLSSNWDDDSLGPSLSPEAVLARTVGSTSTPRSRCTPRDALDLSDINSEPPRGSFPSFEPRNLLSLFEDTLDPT
Kind of assay: Selectivity interaction (KinomeScan (DiscoverX)) EUB0000595a PKMYT1. Conditions: at 10 µM.

Sequence of Mitogen-activated protein kinase 3 (P27361 whole entry): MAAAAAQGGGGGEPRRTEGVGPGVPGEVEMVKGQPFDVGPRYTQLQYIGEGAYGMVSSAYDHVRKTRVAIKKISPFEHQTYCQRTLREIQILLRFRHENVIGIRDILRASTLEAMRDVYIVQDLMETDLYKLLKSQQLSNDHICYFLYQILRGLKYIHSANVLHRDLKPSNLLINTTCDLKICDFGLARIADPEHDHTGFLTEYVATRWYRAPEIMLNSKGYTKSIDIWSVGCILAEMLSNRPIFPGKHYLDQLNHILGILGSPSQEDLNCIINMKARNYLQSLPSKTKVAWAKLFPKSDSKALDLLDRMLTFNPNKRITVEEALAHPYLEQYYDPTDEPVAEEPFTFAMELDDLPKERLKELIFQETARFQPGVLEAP
Sequence of Sodium-dependent dopamine transporter (Q01959 whole entry): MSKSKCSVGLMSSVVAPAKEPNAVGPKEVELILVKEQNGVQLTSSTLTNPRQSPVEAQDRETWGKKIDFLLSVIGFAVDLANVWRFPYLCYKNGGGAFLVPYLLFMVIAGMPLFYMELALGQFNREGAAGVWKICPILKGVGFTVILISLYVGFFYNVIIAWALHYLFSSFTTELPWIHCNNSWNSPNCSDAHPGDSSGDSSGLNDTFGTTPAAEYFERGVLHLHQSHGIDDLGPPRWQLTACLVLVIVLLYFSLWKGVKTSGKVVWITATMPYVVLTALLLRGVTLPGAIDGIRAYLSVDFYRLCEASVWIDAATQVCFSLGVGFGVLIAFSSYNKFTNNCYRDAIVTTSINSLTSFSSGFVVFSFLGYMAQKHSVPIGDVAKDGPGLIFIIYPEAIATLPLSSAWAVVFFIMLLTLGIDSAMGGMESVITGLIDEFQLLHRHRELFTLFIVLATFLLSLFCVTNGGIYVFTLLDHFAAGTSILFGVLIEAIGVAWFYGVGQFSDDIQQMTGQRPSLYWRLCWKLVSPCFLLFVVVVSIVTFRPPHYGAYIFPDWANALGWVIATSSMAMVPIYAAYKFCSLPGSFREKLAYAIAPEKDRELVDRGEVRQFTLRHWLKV
Sequence of Interleukin-1 receptor-associated kinase 1 (Homo sapiens) (P51617 whole entry, looked up): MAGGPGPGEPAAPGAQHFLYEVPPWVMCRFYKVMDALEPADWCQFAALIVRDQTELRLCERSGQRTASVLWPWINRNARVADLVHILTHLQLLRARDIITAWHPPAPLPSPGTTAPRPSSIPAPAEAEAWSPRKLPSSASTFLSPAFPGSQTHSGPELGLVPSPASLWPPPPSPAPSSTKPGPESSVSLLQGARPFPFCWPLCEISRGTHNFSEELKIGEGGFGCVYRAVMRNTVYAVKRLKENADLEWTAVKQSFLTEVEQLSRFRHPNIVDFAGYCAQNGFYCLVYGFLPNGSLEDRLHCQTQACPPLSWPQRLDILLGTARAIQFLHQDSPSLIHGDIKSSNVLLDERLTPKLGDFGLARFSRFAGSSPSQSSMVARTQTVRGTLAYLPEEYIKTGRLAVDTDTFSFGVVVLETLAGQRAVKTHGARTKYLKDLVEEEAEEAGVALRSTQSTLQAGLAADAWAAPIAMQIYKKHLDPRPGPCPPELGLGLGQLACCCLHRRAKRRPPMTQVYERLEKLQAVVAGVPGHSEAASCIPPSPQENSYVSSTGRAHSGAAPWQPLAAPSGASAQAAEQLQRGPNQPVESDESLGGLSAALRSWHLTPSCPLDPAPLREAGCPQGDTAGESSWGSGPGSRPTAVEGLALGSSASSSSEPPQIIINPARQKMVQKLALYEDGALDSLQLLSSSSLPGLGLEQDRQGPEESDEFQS
Sequence of Ribosomal protein S6 kinase beta-1 (P23443 whole entry, looked up): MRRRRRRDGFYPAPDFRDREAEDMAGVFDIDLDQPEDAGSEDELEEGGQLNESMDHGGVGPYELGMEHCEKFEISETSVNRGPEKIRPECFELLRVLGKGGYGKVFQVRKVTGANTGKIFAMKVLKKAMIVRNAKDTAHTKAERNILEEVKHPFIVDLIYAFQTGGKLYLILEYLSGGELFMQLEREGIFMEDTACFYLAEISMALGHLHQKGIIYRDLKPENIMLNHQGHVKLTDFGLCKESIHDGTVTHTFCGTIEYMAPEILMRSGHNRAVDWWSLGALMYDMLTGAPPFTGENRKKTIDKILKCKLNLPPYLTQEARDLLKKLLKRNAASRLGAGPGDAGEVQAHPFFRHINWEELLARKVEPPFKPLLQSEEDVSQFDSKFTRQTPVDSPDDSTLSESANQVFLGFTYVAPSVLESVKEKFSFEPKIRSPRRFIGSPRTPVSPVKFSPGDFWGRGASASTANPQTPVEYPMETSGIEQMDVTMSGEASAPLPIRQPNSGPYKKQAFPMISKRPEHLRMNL
Sequence of Tyrosine-protein kinase JAK1 (P23458 whole entry): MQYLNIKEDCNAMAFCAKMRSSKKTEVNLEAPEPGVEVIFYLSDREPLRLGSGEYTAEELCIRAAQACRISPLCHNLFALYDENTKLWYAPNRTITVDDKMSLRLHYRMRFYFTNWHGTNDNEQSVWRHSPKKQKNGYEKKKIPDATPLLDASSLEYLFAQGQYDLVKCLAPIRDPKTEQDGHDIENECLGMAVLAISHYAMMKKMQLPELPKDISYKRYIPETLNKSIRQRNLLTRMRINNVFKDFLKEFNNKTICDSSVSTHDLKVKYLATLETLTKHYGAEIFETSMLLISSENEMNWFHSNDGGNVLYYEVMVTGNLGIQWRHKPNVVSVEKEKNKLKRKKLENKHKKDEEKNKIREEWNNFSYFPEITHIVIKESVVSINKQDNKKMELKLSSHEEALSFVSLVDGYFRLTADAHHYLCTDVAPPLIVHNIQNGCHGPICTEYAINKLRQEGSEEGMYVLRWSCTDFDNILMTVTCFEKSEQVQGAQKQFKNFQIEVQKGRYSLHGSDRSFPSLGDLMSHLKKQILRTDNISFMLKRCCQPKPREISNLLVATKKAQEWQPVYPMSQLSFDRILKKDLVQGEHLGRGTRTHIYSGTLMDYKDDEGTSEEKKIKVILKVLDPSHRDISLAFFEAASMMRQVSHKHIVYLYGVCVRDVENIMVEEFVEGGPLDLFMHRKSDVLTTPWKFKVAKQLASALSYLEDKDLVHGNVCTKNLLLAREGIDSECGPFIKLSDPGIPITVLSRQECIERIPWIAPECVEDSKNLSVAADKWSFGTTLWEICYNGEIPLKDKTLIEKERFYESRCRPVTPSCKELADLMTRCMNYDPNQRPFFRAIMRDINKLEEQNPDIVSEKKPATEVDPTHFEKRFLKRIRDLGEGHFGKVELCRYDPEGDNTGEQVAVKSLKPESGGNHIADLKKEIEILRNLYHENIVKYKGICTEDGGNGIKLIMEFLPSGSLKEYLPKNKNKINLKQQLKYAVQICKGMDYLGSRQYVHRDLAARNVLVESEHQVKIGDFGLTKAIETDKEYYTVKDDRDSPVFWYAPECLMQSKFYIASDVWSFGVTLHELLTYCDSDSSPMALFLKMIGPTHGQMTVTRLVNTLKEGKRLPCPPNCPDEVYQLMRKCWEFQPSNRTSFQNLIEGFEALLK

For `Cn1cc(-n2cnc3c(NCc4nc5cc(Cl)c(Cl)cc5[nH]4)nc(N4CCOCC4)nc32)cn1`, the % of control in assay [1] is -4.87%.
As for `CN(C)C/C=C/C(=O)Nc1ccc(C(=O)N2CCCC(Nc3ncc(Cl)c(-c4c[nH]c5ccccc45)n3)C2)cc1` (stereo unspecified), the % of control in assay [2] worked out at 7.4%.
With `Cc1cc(C)cc([C@@H]2c3cc(C)ccc3NC(=O)CN2C(=O)c2ccc(Br)s2)c1`, the % of inhibition in assay [3] came to 6%.
In the case of `CN(C)CCOc1ccc(-c2nc(-c3ccncc3)c(-c3ccc4c(c3)CC/C4=N\O)[nH]2)cc1`, the % of control in assay [4] stood at 100%.
With `Nc1cnc(N2CCc3cc(S(=O)(=O)Nc4c(F)cc(Cl)cc4F)cc(N4CCCC4=O)c32)nc1` [TP-020n], the % of control in assay [5] was determined as 76%.
With `CC[C@@H]1[C@H](F)C(=O)N[C@@H]1COc1nccc2cc(C(N)=O)c(OC)cc12` [ZIMLOVISERTIB], the % of inhibition in [6] is 91.4%; in assay [7], -1.3%.
As to `CCN(CC)CCCCNc1ncc2cc(-c3cc(OC)cc(OC)c3)c(NC(=O)NC(C)(C)C)nc2n1`, in assay [8], the % of control stood at 100%.
For the compound `Cc1cc(F)c(C(=O)Nc2cccc(-c3nncn3C(C)C)n2)cc1-n1cnc(C2CC2)c1`, the % of control in [9] is 100%.
Turning to `Cc1ccc(-c2ccc3c(ccc4sc5c(c43)NC[C@@H](C)NC5=O)n2)cn1`, in assay [10], the % of inhibition stood at 8%.
Consider `COCC(=O)NC/C=C/c1ccc2ncnc(Nc3ccc(Oc4ccc(C)nc4)c(C)c3)c2c1` [CP-724714], for which the % of control in assay [11] was 100%.
